Data on 17 compounds can be found in ChEMBL document CHEMBL1255533, “PKI-179: an orally efficacious dual phosphatidylinositol-3-kinase (PI3K)/mammalian target of rapamycin (mTOR) inhibitor” (Bioorg Med Chem Lett, 2010).

The structures appear in SMILES notation.

What is called IC50 is the concentration needed to halve the response being measured.

In assay [1] the target is Phosphatidylinositol 4,5-bisphosphate 3-kinase catalytic subunit alpha isoform (Homo sapiens, UniProt P42336). Put plainly: Inhibition of PI3K-alpha.
Assay [2] deals with Phosphatidylinositol 4,5-bisphosphate 3-kinase catalytic subunit gamma isoform (Homo sapiens, UniProt P48736). Briefly: Inhibition of PI3K-gamma.
Assay [3] concerns the target Serine/threonine-protein kinase mTOR (Homo sapiens, UniProt P42345). Put plainly: Inhibition of mTOR.
Assay [4] deals with MDA-MB-361. Briefly: Antiproliferative activity against human MDA-MB-361 cells. In kind it is functional, cell-based.
Assay [5] concerns PC-3. Briefly: Antiproliferative activity against human PC3 cells. The class given is functional, cell-based.

Chain of Phosphatidylinositol 4,5-bisphosphate 3-kinase catalytic subunit alpha isoform (P42336 whole entry, canonical isoform): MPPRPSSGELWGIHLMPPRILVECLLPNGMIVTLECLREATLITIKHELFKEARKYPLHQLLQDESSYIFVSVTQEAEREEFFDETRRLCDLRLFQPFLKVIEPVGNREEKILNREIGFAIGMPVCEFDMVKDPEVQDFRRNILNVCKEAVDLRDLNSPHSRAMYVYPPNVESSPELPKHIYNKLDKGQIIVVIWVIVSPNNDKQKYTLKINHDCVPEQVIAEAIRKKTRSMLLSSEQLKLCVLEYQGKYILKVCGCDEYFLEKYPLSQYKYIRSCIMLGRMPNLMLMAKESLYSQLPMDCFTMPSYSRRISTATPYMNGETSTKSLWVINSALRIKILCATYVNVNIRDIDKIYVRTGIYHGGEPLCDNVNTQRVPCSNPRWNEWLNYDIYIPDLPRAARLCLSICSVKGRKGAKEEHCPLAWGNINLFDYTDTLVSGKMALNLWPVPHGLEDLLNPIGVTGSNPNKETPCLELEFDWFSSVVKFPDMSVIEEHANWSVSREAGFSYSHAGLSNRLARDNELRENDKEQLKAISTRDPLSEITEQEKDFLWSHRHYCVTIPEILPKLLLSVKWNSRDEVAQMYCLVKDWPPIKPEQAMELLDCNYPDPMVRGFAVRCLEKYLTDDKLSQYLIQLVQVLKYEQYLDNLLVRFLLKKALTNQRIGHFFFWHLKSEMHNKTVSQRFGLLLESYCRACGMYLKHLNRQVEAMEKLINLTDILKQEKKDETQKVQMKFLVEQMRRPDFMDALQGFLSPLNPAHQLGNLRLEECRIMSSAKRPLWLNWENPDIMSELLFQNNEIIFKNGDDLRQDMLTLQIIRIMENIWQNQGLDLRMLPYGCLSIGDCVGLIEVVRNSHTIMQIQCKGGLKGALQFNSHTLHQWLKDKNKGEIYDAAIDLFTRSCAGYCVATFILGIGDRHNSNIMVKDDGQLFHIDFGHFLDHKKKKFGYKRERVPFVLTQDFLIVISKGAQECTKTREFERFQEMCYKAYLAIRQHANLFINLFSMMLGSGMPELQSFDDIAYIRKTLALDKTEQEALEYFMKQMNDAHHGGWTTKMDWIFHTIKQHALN
Chain of Phosphatidylinositol 4,5-bisphosphate 3-kinase catalytic subunit gamma isoform (P48736 whole entry, canonical isoform): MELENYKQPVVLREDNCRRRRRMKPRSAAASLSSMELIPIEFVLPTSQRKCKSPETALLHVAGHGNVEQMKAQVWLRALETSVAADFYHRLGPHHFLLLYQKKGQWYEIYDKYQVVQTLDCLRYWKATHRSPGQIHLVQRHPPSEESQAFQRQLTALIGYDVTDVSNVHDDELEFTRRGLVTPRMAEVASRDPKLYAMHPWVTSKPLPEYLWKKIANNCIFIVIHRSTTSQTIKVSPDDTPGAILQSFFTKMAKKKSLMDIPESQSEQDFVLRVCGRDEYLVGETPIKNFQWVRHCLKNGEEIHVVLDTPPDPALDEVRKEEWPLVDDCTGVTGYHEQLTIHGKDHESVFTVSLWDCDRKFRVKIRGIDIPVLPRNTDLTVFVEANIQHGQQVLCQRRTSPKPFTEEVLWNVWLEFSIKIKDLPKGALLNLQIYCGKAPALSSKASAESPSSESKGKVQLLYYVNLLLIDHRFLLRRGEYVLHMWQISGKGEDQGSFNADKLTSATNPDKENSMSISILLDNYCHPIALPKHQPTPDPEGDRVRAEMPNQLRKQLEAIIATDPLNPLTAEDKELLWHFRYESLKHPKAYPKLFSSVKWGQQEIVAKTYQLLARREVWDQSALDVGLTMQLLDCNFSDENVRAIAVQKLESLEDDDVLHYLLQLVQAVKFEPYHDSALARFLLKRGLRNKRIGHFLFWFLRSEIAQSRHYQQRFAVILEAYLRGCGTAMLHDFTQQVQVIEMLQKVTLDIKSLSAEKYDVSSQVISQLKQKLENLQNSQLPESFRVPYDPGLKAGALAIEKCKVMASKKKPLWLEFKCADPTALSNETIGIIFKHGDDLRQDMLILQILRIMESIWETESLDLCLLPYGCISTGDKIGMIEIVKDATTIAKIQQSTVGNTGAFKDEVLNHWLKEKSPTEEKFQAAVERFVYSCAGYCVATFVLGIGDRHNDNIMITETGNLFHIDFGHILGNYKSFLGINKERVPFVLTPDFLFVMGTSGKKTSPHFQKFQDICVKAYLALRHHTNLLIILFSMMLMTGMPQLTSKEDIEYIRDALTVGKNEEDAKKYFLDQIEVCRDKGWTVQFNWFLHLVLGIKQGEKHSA

With `O=C(Nc1ccncc1)Nc1ccc(-c2nc(N3CCOCC3)nc(N3C4COCC3[C@@H](O)C4)n2)cc1` (some centres not stated), the IC50 in assay [1] worked out at 4 nM; in assay [2] it was 33 nM; in assay [3], 0.8 nM; in assay [4], 32 nM; in assay [5], 80 nM.
For the compound `N#Cc1ccc(NC(=O)Nc2ccc(-c3nc(N4CCOCC4)nc(N4C5CCC4COC5)n3)cc2)cc1`, the IC50 in assay [3] was found to be 3.3 nM; in assay [4] it was 345 nM; in assay [5], 3600 nM.
As to `O=C(Nc1ccc(-c2nc(N3CCOCC3)nc(N3C4CCC3COC4)n2)cc1)Nc1ccnnc1`, the IC50 amounted to 28 nM in assay [1], 36 nM in assay [4] and 47 nM in assay [5].
In the case of `O=C(Nc1ccc(-c2nc(N3CCOCC3)nc(N3C4CCC3COC4)n2)cc1)Nc1ccc(-c2cccnc2)nc1`, the IC50 in assay [1] is 40 nM; in assay [2] it was 44 nM; in assay [3] it was 3.45 nM; in assay [4] it was 56 nM; in assay [5] it was 45 nM.
Turning to `O=C(Nc1ccc(-c2nc(N3CCOCC3)nc(N3C4CCC3COC4)n2)cc1)Nc1cccnc1`, the IC50 in assay [4] came to 73 nM; in assay [5], 98 nM.
As for `O=C(Nc1ccc(F)cc1)Nc1ccc(-c2nc(N3CCOCC3)nc(N3C4CCC3COC4)n2)cc1`, the figures for the IC50 in assay [3], in assay [4] and in assay [5] were 1.9 nM, 98 nM and 176 nM, respectively.
As to `Cc1ccc(NC(=O)Nc2ccc(-c3nc(N4CCOCC4)nc(N4C5CCC4COC5)n3)cc2)cc1`, the IC50 in assay [4] turned out to be 167 nM; in assay [5] it was 301 nM.
On to `O=C(Nc1ccc(-c2nc(N3CCOCC3)nc(N3C4CCC3COC4)n2)cc1)Nc1cncnc1`, for which the IC50 was 84 nM in assay [1], 240 nM in assay [2], 110 nM in assay [4] and 138 nM in assay [5].
For the compound `O=C(Nc1ccccc1)Nc1ccc(-c2nc(N3CCOCC3)nc(N3C4CCC3COC4)n2)cc1`, the IC50 in assay [1] came to 18 nM; in assay [2] it was 51 nM; in assay [3], 2 nM; in assay [4] it was 104 nM; in assay [5], 147 nM.
On to `CN1CCN(c2ccc(NC(=O)Nc3ccc(-c4nc(N5CCOCC5)nc(N5C6CCC5COC6)n4)cc3)cc2)CC1`, for which the IC50 in assay [3] was determined as 1.1 nM; in assay [4], 35 nM; in assay [5], 40 nM.
For `O=C(Nc1ccc(-c2nc(N3CCOCC3)nc(N3C4CCC3COC4)n2)cc1)Nc1ccnc(Cl)c1`, the IC50 came out at 23 nM in assay [1], 93 nM in assay [4] and 118 nM in assay [5].
Regarding `CN1CCN(Cc2ccc(NC(=O)Nc3ccc(-c4nc(N5CCOCC5)nc(N5C6CCC5COC6)n4)cc3)cc2)CC1`, the IC50 in assay [4] stood at 14 nM; in assay [5] it was 31 nM.
As for `COc1ccc(NC(=O)Nc2ccc(-c3nc(N4CCOCC4)nc(N4C5CCC4COC5)n3)cc2)cc1OC`, the IC50 in assay [1] turned out to be 13.5 nM; in assay [2] it was 358 nM; in assay [3], 93.5 nM; in assay [4] it was 402 nM; in assay [5], 1250 nM.
As to `O=C(Nc1ccc(CO)cc1)Nc1ccc(-c2nc(N3CCOCC3)nc(N3C4CCC3COC4)n2)cc1`, the IC50 came out at 15 nM in assay [4] and 28 nM in assay [5].
With `O=C(Nc1ccc(CCO)cc1)Nc1ccc(-c2nc(N3CCOCC3)nc(N3C4CCC3COC4)n2)cc1`, the figures for the IC50 in assay [4] and in assay [5] were 22 nM and 30 nM, respectively.
As for `CN(C)CCOc1ccc(NC(=O)Nc2ccc(-c3nc(N4CCOCC4)nc(N4C5CCC4COC5)n3)cc2)cc1`, the IC50 in assay [1] is 14 nM; in assay [4], below 30 nM; in assay [5] it was below 30 nM.
As to `CN(C)c1ccc(NC(=O)Nc2ccc(-c3nc(N4CCOCC4)nc(N4C5CCC4COC5)n3)cc2)cc1`, the IC50 in assay [1] is 3.5 nM; in assay [2], 717 nM; in assay [3], 13.5 nM; in assay [4], above 1000 nM; in assay [5], above 1000 nM.
